The supplement of paper PMC4977894
± gives the standard deviation of the averaged measurements.

Assays:
[1] = system: Homo sapiens (human subject panel, olfactory perception); assay: perceived odor familiarity rating (rating 0-100); higher = more familiar
Procedure: (§1)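 Human olfactory psychophysics. 55 healthy subjects (after excluding 6 low performers) sniffed 1 mL of each odorant diluted in paraffin oil (vials, two dilutions per molecule, 20 molecules presented twice). Each subject rated intensity, pleasantness and familiarity on a 0-100 slider, starting at 50 and required to move. Ratings were given only when the subject reported detecting a smell; per-subject ratings are averaged over subjects.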

[2] = system: Homo sapiens (human subject panel, olfactory perception); assay: perceived odor intensity rating (rating 0-100); higher = stronger perceived smell
Procedure: as §1

[3] = system: Homo sapiens (human subject panel, olfactory perception); assay: perceived odor pleasantness rating (rating 0-100); higher = more pleasant
Procedure: as §1

[4] = odor dilution in paraffin oil: 1/10
[5] = odor dilution in paraffin oil: 1/1,000
[6] = odor dilution in paraffin oil: 1/100,000
[7] = odor dilution in paraffin oil: 1/10,000,000

CCCCCCCCCC(C)=O [2-Undecanone]
perceived odor familiarity rating [1, 4]: 49.5 ± 32
perceived odor familiarity rating [1, 5]: 39.6 ± 30
perceived odor intensity rating [2, 4]: 79.4 ± 22
perceived odor intensity rating [2, 5]: 31.9 ± 28
perceived odor pleasantness rating [3, 4]: 43.3 ± 32
perceived odor pleasantness rating [3, 5]: 50.4 ± 22

CC(=O)c1ccccn1 [2-acetyl pyridine]
perceived odor familiarity rating [1, 5]: 66.9 ± 28
perceived odor familiarity rating [1, 6]: 67.8 ± 29
perceived odor intensity rating [2, 5]: 79.2 ± 20
perceived odor intensity rating [2, 6]: 74.3 ± 22
perceived odor pleasantness rating [3, 5]: 49.7 ± 28
perceived odor pleasantness rating [3, 6]: 53.6 ± 27

CCC(C)=O [2-butanone]
perceived odor familiarity rating [1, 5]: 34.9 ± 32
perceived odor familiarity rating [1, 6]: 27.4 ± 31
perceived odor intensity rating [2, 5]: 33 ± 33
perceived odor intensity rating [2, 6]: 19.4 ± 26
perceived odor pleasantness rating [3, 5]: 43.3 ± 28
perceived odor pleasantness rating [3, 6]: 49.6 ± 29

CCCCCCCCC(C)=O [2-decanone]
perceived odor familiarity rating [1, 5]: 44 ± 29
perceived odor familiarity rating [1, 6]: 30.3 ± 23
perceived odor intensity rating [2, 5]: 44.8 ± 30
perceived odor intensity rating [2, 6]: 24.6 ± 26
perceived odor pleasantness rating [3, 5]: 49.5 ± 25
perceived odor pleasantness rating [3, 6]: 51.2 ± 26

CCc1cnccn1 [2-ethyl pyrazine]
perceived odor familiarity rating [1, 5]: 55.8 ± 34
perceived odor familiarity rating [1, 6]: 34.8 ± 27
perceived odor intensity rating [2, 5]: 80 ± 19
perceived odor intensity rating [2, 6]: 31.4 ± 25
perceived odor pleasantness rating [3, 5]: 37.2 ± 30
perceived odor pleasantness rating [3, 6]: 47 ± 21

CCCCC(CC)CO (stereo not given) [2-ethyl-1-hexanol]
perceived odor familiarity rating [1, 5]: 42.1 ± 30
perceived odor familiarity rating [1, 6]: 43.6 ± 31
perceived odor intensity rating [2, 5]: 79.7 ± 19
perceived odor intensity rating [2, 6]: 51.2 ± 34
perceived odor pleasantness rating [3, 5]: 19.4 ± 22
perceived odor pleasantness rating [3, 6]: 25.9 ± 23

CCCCC(CC)COC(C)=O (stereo not given) [2-ethylhexyl acetate]
perceived odor familiarity rating [1, 5]: 38.6 ± 29
perceived odor familiarity rating [1, 6]: 32.7 ± 29
perceived odor intensity rating [2, 5]: 44.4 ± 32
perceived odor intensity rating [2, 6]: 24.6 ± 31
perceived odor pleasantness rating [3, 5]: 42 ± 22
perceived odor pleasantness rating [3, 6]: 51.3 ± 22

CCc1ccccc1O [2-ethylphenol]
perceived odor familiarity rating [1, 5]: 64.4 ± 28
perceived odor familiarity rating [1, 6]: 51.6 ± 33
perceived odor intensity rating [2, 5]: 83.3 ± 18
perceived odor intensity rating [2, 6]: 67.7 ± 27
perceived odor pleasantness rating [3, 5]: 29.2 ± 27
perceived odor pleasantness rating [3, 6]: 33.2 ± 24

CCCCCC(C)=O [2-heptanone]
perceived odor familiarity rating [1, 5]: 52.7 ± 29
perceived odor familiarity rating [1, 6]: 23.9 ± 22
perceived odor intensity rating [2, 5]: 71.1 ± 22
perceived odor intensity rating [2, 6]: 25.4 ± 27
perceived odor pleasantness rating [3, 5]: 53.8 ± 25
perceived odor pleasantness rating [3, 6]: 51.9 ± 26

CCCCC(C)O (stereo not given) [2-hexanol]
perceived odor familiarity rating [1, 5]: 58.2 ± 28
perceived odor familiarity rating [1, 6]: 38.1 ± 29
perceived odor intensity rating [2, 5]: 71.9 ± 24
perceived odor intensity rating [2, 6]: 47.8 ± 32
perceived odor pleasantness rating [3, 5]: 42.3 ± 24
perceived odor pleasantness rating [3, 6]: 42.1 ± 25

CCCCC(C)=O [2-hexanone]
perceived odor familiarity rating [1, 5]: 57.6 ± 32
perceived odor familiarity rating [1, 6]: 31.4 ± 27
perceived odor intensity rating [2, 5]: 71.4 ± 25
perceived odor intensity rating [2, 6]: 25.5 ± 31
perceived odor pleasantness rating [3, 5]: 42.2 ± 24
perceived odor pleasantness rating [3, 6]: 48.6 ± 23

CCC/C=C/C=O [2-hexenal]
perceived odor familiarity rating [1, 5]: 41.1 ± 33
perceived odor familiarity rating [1, 6]: 43.1 ± 31
perceived odor intensity rating [2, 5]: 67.4 ± 28
perceived odor intensity rating [2, 6]: 39.7 ± 29
perceived odor pleasantness rating [3, 5]: 30.9 ± 26
perceived odor pleasantness rating [3, 6]: 53.1 ± 26

COc1nccnc1CC(C)C [2-isobutyl-3-methoxypyrazine]
perceived odor familiarity rating [1, 5]: 50.1 ± 31
perceived odor familiarity rating [1, 6]: 57.7 ± 30
perceived odor intensity rating [2, 5]: 80.6 ± 19
perceived odor intensity rating [2, 6]: 71.7 ± 27
perceived odor pleasantness rating [3, 5]: 31.2 ± 25
perceived odor pleasantness rating [3, 6]: 47.9 ± 26

CC(C)CO [2-methyl-1-propanol]
perceived odor familiarity rating [1, 5]: 38.5 ± 34
perceived odor familiarity rating [1, 6]: 35.4 ± 28
perceived odor intensity rating [2, 5]: 42.5 ± 33
perceived odor intensity rating [2, 6]: 23.4 ± 23
perceived odor pleasantness rating [3, 5]: 37.4 ± 23
perceived odor pleasantness rating [3, 6]: 43.5 ± 21

CCCCCCC(C)=O [2-octanone]
perceived odor familiarity rating [1, 5]: 51.9 ± 26
perceived odor familiarity rating [1, 6]: 36.6 ± 25
perceived odor intensity rating [2, 5]: 66.8 ± 26
perceived odor intensity rating [2, 6]: 20 ± 26
perceived odor pleasantness rating [3, 5]: 52.5 ± 25
perceived odor pleasantness rating [3, 6]: 52.2 ± 16

CCCC(C)O (stereo not given) [2-pentanol]
perceived odor familiarity rating [1, 5]: 41.8 ± 30
perceived odor familiarity rating [1, 6]: 38.9 ± 31
perceived odor intensity rating [2, 5]: 50.2 ± 34
perceived odor intensity rating [2, 6]: 25.7 ± 23
perceived odor pleasantness rating [3, 5]: 35.5 ± 26
perceived odor pleasantness rating [3, 6]: 42.6 ± 21

OCCc1ccccc1 [2-phenylethanol]
perceived odor familiarity rating [1, 5]: 61.9 ± 30
perceived odor familiarity rating [1, 6]: 61.8 ± 29
perceived odor intensity rating [2, 5]: 70 ± 26
perceived odor intensity rating [2, 6]: 59.6 ± 29
perceived odor pleasantness rating [3, 5]: 52.8 ± 30
perceived odor pleasantness rating [3, 6]: 63.1 ± 24

CCC(C)C1CCCCC1=O (stereo not given) [2-sec-Butylcyclohexanone]
perceived odor familiarity rating [1, 4]: 58.9 ± 32
perceived odor familiarity rating [1, 5]: 44.6 ± 32
perceived odor intensity rating [2, 4]: 81.9 ± 17
perceived odor intensity rating [2, 5]: 56.8 ± 28
perceived odor pleasantness rating [3, 4]: 49.3 ± 29
perceived odor pleasantness rating [3, 5]: 51 ± 24

COc1ccc(C(C)=O)cc1OC [3,4-Dimethoxyacetophenone]
perceived odor familiarity rating [1, 4]: 48.6 ± 30
perceived odor familiarity rating [1, 5]: 35.9 ± 26
perceived odor intensity rating [2, 4]: 61.7 ± 26
perceived odor intensity rating [2, 5]: 26.5 ± 30
perceived odor pleasantness rating [3, 4]: 38.9 ± 26
perceived odor pleasantness rating [3, 5]: 51.4 ± 20

CC(C)CCCC(C)CCO (stereo not given) [3,7-Dimethyl-1-octanol]
perceived odor familiarity rating [1, 5]: 57.6 ± 30
perceived odor familiarity rating [1, 6]: 40.5 ± 26
perceived odor intensity rating [2, 5]: 74.7 ± 22
perceived odor intensity rating [2, 6]: 24.2 ± 26
perceived odor pleasantness rating [3, 5]: 40.2 ± 28
perceived odor pleasantness rating [3, 6]: 43.8 ± 19

CC(C)=CCCC(C)=CC#N [3,7-Dimethyl-2,6-octadienenitrile]
perceived odor familiarity rating [1, 5]: 67.1 ± 29
perceived odor familiarity rating [1, 6]: 48.4 ± 34
perceived odor intensity rating [2, 5]: 75.1 ± 22
perceived odor intensity rating [2, 6]: 46.2 ± 28
perceived odor pleasantness rating [3, 5]: 64.5 ± 28
perceived odor pleasantness rating [3, 6]: 60.3 ± 23

Cc1ccc(C(C)CC=O)o1 (stereo not given) [3-(5-Methyl-2-furyl)butanal]
perceived odor familiarity rating [1, 5]: 41.5 ± 32
perceived odor familiarity rating [1, 6]: 36 ± 31
perceived odor intensity rating [2, 5]: 74.3 ± 22
perceived odor intensity rating [2, 6]: 30.8 ± 30
perceived odor pleasantness rating [3, 5]: 27.9 ± 24
perceived odor pleasantness rating [3, 6]: 41.6 ± 25

CSCCC=O [3-(Methylthio)propionaldehyde]
perceived odor familiarity rating [1, 6]: 53.5 ± 33
perceived odor familiarity rating [1, 7]: 49.9 ± 33
perceived odor intensity rating [2, 6]: 79.6 ± 23
perceived odor intensity rating [2, 7]: 70.3 ± 25
perceived odor pleasantness rating [3, 6]: 23.9 ± 28
perceived odor pleasantness rating [3, 7]: 30.7 ± 26

CSCCCN=C=S [3-(Methylthio)propyl isothiocyanate]
perceived odor familiarity rating [1, 5]: 49.7 ± 32
perceived odor familiarity rating [1, 6]: 47.6 ± 30
perceived odor intensity rating [2, 5]: 82.7 ± 21
perceived odor intensity rating [2, 6]: 62.5 ± 29
perceived odor pleasantness rating [3, 5]: 25.2 ± 26
perceived odor pleasantness rating [3, 6]: 34.3 ± 27

CSCCCO [3-(methylthio)-1-propanol]
perceived odor familiarity rating [1, 6]: 53.7 ± 31
perceived odor familiarity rating [1, 7]: 43.2 ± 31
perceived odor intensity rating [2, 6]: 82.2 ± 17
perceived odor intensity rating [2, 7]: 66.3 ± 26
perceived odor pleasantness rating [3, 6]: 22.9 ± 26
perceived odor pleasantness rating [3, 7]: 24.8 ± 22

CC(=O)c1cc(C)oc1C [3-Acetyl-2,5-dimethylfuran]
perceived odor familiarity rating [1, 6]: 44.9 ± 27
perceived odor familiarity rating [1, 7]: 40.2 ± 32
perceived odor intensity rating [2, 6]: 65.6 ± 24
perceived odor intensity rating [2, 7]: 15.4 ± 22
perceived odor pleasantness rating [3, 6]: 31.6 ± 22
perceived odor pleasantness rating [3, 7]: 48.9 ± 22

CC(=O)c1cc(C)sc1C [3-Acetyl-2,5-dimethylthiophene]
perceived odor familiarity rating [1, 5]: 47.4 ± 29
perceived odor familiarity rating [1, 6]: 35.4 ± 30
perceived odor intensity rating [2, 5]: 78.9 ± 20
perceived odor intensity rating [2, 6]: 19.4 ± 20
perceived odor pleasantness rating [3, 5]: 27.7 ± 26
perceived odor pleasantness rating [3, 6]: 49.4 ± 29

CC(=O)c1cccnc1 [3-Acetylpyridine]
perceived odor familiarity rating [1, 5]: 48.2 ± 33
perceived odor familiarity rating [1, 6]: 30 ± 31
perceived odor intensity rating [2, 5]: 76.2 ± 23
perceived odor intensity rating [2, 6]: 24.6 ± 30
perceived odor pleasantness rating [3, 5]: 32.3 ± 29
perceived odor pleasantness rating [3, 6]: 44.8 ± 29

CCCCCC/C=C/C(C)=O [3-Decen-2-one]
perceived odor familiarity rating [1, 5]: 42.5 ± 28
perceived odor familiarity rating [1, 6]: 27.1 ± 21
perceived odor intensity rating [2, 5]: 65.4 ± 25
perceived odor intensity rating [2, 6]: 21.6 ± 23
perceived odor pleasantness rating [3, 5]: 33.9 ± 22
perceived odor pleasantness rating [3, 6]: 46.8 ± 18

CC(C)CCS [3-Methyl-1-butanethiol]
perceived odor familiarity rating [1, 6]: 54.6 ± 34
perceived odor familiarity rating [1, 7]: 46.5 ± 29
perceived odor intensity rating [2, 6]: 88.3 ± 14
perceived odor intensity rating [2, 7]: 54.1 ± 30
perceived odor pleasantness rating [3, 6]: 13.3 ± 18
perceived odor pleasantness rating [3, 7]: 32 ± 26

CC1CCCC(=O)C1 (stereo not given) [3-Methylcyclohexanone]
perceived odor familiarity rating [1, 5]: 53.2 ± 34
perceived odor familiarity rating [1, 6]: 34 ± 27
perceived odor intensity rating [2, 5]: 71 ± 28
perceived odor intensity rating [2, 6]: 39.3 ± 34
perceived odor pleasantness rating [3, 5]: 45.5 ± 30
perceived odor pleasantness rating [3, 6]: 41.7 ± 22

CCCCCC(O)CC (stereo not given) [3-Octanol]
perceived odor familiarity rating [1, 5]: 45.5 ± 29
perceived odor familiarity rating [1, 6]: 35.9 ± 28
perceived odor intensity rating [2, 5]: 72 ± 23
perceived odor intensity rating [2, 6]: 26.9 ± 25
perceived odor pleasantness rating [3, 5]: 38.2 ± 25
perceived odor pleasantness rating [3, 6]: 49.5 ± 18

CCCCCC(CC)OC(C)=O (stereo not given) [3-Octyl Acetate]
perceived odor familiarity rating [1, 4]: 51.6 ± 32
perceived odor familiarity rating [1, 5]: 48.9 ± 29
perceived odor intensity rating [2, 4]: 83.7 ± 17
perceived odor intensity rating [2, 5]: 39.7 ± 31
perceived odor pleasantness rating [3, 4]: 44.9 ± 31
perceived odor pleasantness rating [3, 5]: 59 ± 26

CCC(=O)CC [3-Pentanone]
perceived odor familiarity rating [1, 5]: 53.3 ± 32
perceived odor familiarity rating [1, 6]: 39.5 ± 29
perceived odor intensity rating [2, 5]: 57.4 ± 35
perceived odor intensity rating [2, 6]: 33.3 ± 32
perceived odor pleasantness rating [3, 5]: 41.1 ± 26
perceived odor pleasantness rating [3, 6]: 45.4 ± 24

OCCCc1ccccc1 [3-Phenyl-1-propanol]
perceived odor familiarity rating [1, 5]: 49.5 ± 34
perceived odor familiarity rating [1, 6]: 36.7 ± 27
perceived odor intensity rating [2, 5]: 63.3 ± 30
perceived odor intensity rating [2, 6]: 34.5 ± 32
perceived odor pleasantness rating [3, 5]: 48.6 ± 33
perceived odor pleasantness rating [3, 6]: 45.4 ± 25
